Measured values published in the supplement of paper PMC10307832.

Legend:
Assay in all cases: relative viability (nuclei count vs DMSO), 5 days (fraction); higher = more cells survive
Pictilisib + Vorinostat = compound: CS(=O)(=O)N1CCN(Cc2cc3nc(-c4cccc5[nH]ncc45)nc(N4CCOCC4)c3s2)CC1 [Pictilisib] + O=C(CCCCCCC(=O)Nc1ccccc1)NO [Vorinostat] (partner 1 µM)
How it was run: (§1)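 One day after seeding in 1536-well plates, lung cancer cell lines were dosed by pin tool. Dosing was either single-drug or a fixed anchor-drug dose plus five library-drug doses (not always all listed) in √10 steps. After 5 days, nuclei were stained in one fix-and-stain step and counted on 4× images, and relative viability is the nuclei count of treated wells over that of vehicle wells, given as the median of duplicate plates.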

MK-2206 + Crizotinib = compound: NC1(c2ccc(-c3nc4ccn5c(=O)[nH]nc5c4cc3-c3ccccc3)cc2)CCC1 [MK-2206] + C[C@@H](Oc1cc(-c2cnn(C3CCNCC3)c2)cnc1N)c1c(Cl)ccc(F)c1Cl [Crizotinib] (partner 1 µM)
How it was run: as §1

MK-2206 + Luminespib = compound: NC1(c2ccc(-c3nc4ccn5c(=O)[nH]nc5c4cc3-c3ccccc3)cc2)CCC1 [MK-2206] + CCNC(=O)c1noc(-c2cc(C(C)C)c(O)cc2O)c1-c1ccc(CN2CCOCC2)cc1 [Luminespib] (partner 0.01 µM)
How it was run: as §1

MK-2206 + Palbociclib = compound: NC1(c2ccc(-c3nc4ccn5c(=O)[nH]nc5c4cc3-c3ccccc3)cc2)CCC1 [MK-2206] + CC(=O)c1c(C)c2cnc(Nc3ccc(N4CCNCC4)cn3)nc2n(C2CCCC2)c1=O [Palbociclib] (partner 0.5 µM)
How it was run: as §1

MK-2206 + Linsitinib = compound: NC1(c2ccc(-c3nc4ccn5c(=O)[nH]nc5c4cc3-c3ccccc3)cc2)CCC1 [MK-2206] + C[C@]1(O)C[C@@H](c2nc(-c3ccc4ccc(-c5ccccc5)nc4c3)c3c(N)nccn32)C1 [Linsitinib] (partner 1 µM)
How it was run: as §1

Cell Line | relative viability (Pictilisib + Vorinostat; first compound 0.02 µM) | relative viability (Pictilisib + Vorinostat; first compound 0.06325 µM) | relative viability (Pictilisib + Vorinostat; first compound 0.6325 µM) | relative viability (Pictilisib + Vorinostat; first compound 2 µM) | relative viability (MK-2206 + Crizotinib; first compound 0.01 µM) | relative viability (MK-2206 + Crizotinib; first compound 0.03162 µM) | relative viability (MK-2206 + Crizotinib; first compound 0.3162 µM) | relative viability (MK-2206 + Crizotinib; first compound 1 µM) | relative viability (MK-2206 + Luminespib; first compound 0.01 µM) | relative viability (MK-2206 + Luminespib; first compound 0.03162 µM) | relative viability (MK-2206 + Luminespib; first compound 0.3162 µM) | relative viability (MK-2206 + Luminespib; first compound 1 µM) | relative viability (MK-2206 + Palbociclib; first compound 0.01 µM) | relative viability (MK-2206 + Palbociclib; first compound 0.03162 µM) | relative viability (MK-2206 + Palbociclib; first compound 0.3162 µM) | relative viability (MK-2206 + Palbociclib; first compound 1 µM) | relative viability (MK-2206 + Linsitinib; first compound 0.01 µM) | relative viability (MK-2206 + Linsitinib; first compound 0.03162 µM) | relative viability (MK-2206 + Linsitinib; first compound 0.3162 µM) | relative viability (MK-2206 + Linsitinib; first compound 1 µM)
NCI-H1666 | 1.09 | 1.03 | 0.916 | 0.867 | 0.965 | 1.12 | 0.789 | 0.892 | 0.961 | 1.02 | 1.13 | 1.01 | 0.63 | 0.675 | 0.652 | 0.586 | 0.753 | 0.73 | 0.695 | 0.709
PC-3 [JPC-3] | 0.953 | 0.548 | 0.613 | 0.418 | 0.973 | 0.98 | 0.946 | 1.03 | 0.601 | 0.652 | 0.627 | 0.705 | 0.5 | 0.509 | 0.535 | 0.519 | 1.01 | 0.938 | 0.91 | 0.97
NCI-H1755 | 0.795 | 0.812 | 0.642 | 0.354 | 0.875 | 0.836 | 0.798 | 0.727 | 0.411 | 0.636 | 0.469 | 0.346 | 0.461 | 0.419 | 0.388 | 0.43 | 0.997 | 0.996 | 0.903 | 0.876
RERF-LC-KJ | 0.732 | 0.699 | 0.573 | 0.461 | 0.808 | 0.806 | 0.871 | 0.842 | 1.27 | 1.11 | 0.971 | 1.06 | 0.954 | 1.13 | 1 | 1.06 | 0.848 | 0.864 | 0.9 | 0.789
NCI-H647 | 0.532 | 0.795 | 0.515 | 0.276 | 1.03 | 1.06 | 1.04 | 0.897 | 0.0812 | 0.159 | 0.156 | 0.126 | 0.389 | 0.403 | 0.349 | 0.264 | 1.18 | 1.1 | 1.07 | 1.03
BEN | 0.583 | 0.615 | 0.609 | 0.441 | 0.906 | 0.956 | 0.913 | 0.908 | 0.404 | 0.484 | 0.274 | 0.495 | 0.493 | 0.516 | 0.522 | 0.498 | 0.924 | 1.01 | 1.04 | 1.03
201T | 0.859 | 0.966 | 0.869 | 0.622 | 1.02 | 1.07 | 1.03 | 1.01 | 1.01 | 1.05 | 1.09 | 1.03 | 0.356 | 0.344 | 0.342 | 0.332 | 1.05 | 0.941 | 1.03 | 1.03
LC-2-ad | 0.699 | 0.779 | 0.466 | 0.447 | 0.494 | 0.453 | 0.435 | 0.42 | 1.01 | 1.01 | 1.24 | 1.08 | 0.488 | 0.523 | 0.51 | 0.499 | 0.813 | 0.843 | 0.909 | 0.781
LCLC-97TM1 | 0.712 | 0.658 | 0.619 | 0.212 | 0.34 | 0.329 | 0.303 | 0.284 | 0.873 | 0.775 | 0.618 | 0.616 | 0.264 | 0.233 | 0.191 | 0.198 | 0.219 | 0.171 | 0.177 | 0.174
NCI-H1915 | 0.537 | 0.521 | 0.536 | 0.403 | 0.911 | 0.923 | 0.874 | 0.905 | 0.86 | 0.853 | 0.787 | 0.72 | 0.594 | 0.612 | 0.499 | 0.505 | 1.12 | 1.07 | 1.04 | 1.09
NCI-H3122 | 0.91 | 0.965 | 0.759 | 0.504 | 0.261 | 0.278 | 0.218 | 0.263 | 0.118 | 0.1 | 0.0816 | 0.084 | 0.187 | 0.179 | 0.201 | 0.193 | 0.942 | 1.07 | 0.927 | 0.91
NCI-H1993 | 0.713 | 0.639 | 0.494 | 0.436 | 0.842 | 0.86 | 0.729 | 0.68 | 0.44 | 0.827 | 0.671 | 0.565 | 0.638 | 0.74 | 0.545 | 0.471 | 0.681 | 0.811 | 0.704 | 0.71
NCI-H2405 | 1.26 | 1.06 | 0.842 | 0.432 | 0.79 | 0.858 | 0.83 | 0.786 | 0.713 | 0.853 | 0.532 | 0.559 | 0.512 | 0.534 | 0.532 | 0.481 | 0.878 | 1.09 | 0.878 | 0.71
NCI-H661 | 0.857 | 0.826 | 0.936 | 0.745 | 0.952 | 0.911 | 0.809 | 0.961 | 0.93 | 0.884 | 0.968 | 0.947 | 0.428 | 0.42 | 0.354 | 0.349 | 0.583 | 0.725 | 0.665 | 0.541
